How the values were obtained:
MYB mRNA = test: Splicing RT-qPCR assay, MYB canonical (CJ) and alternative (AJ) junction mRNA; format: cell-based, human; details: Homo sapiens, 24 h, A673 or K562 cells, 24 hours compound treatment, RT-qPCR; for AC50: read-out: MYB AJ (AC50, increase in alternative junction mRNA); for IC50: read-out: MYB CJ (IC50, decrease in canonical junction mRNA)
In short: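 One-step RT-qPCR on cell lysates, CJ and AJ isoforms quantified; housekeeping normalization GAPDH/GUSB (K562) or PPIA (A673). Cells: A673 in DMEM/10% FBS or K562 in IMDM/10% FBS. Compounds 11-pt 3-fold, top 10 uM, 24 h, 37 °C, 5% CO2.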

MYB = test: Protein abundance, HiBit-assay system (Promega), MYB; format: cell-based; details: Table 6; HiBiT-modified K562 cells, 24 hours
Description: In some embodiments, a compound of Formula (I) or (II) or a pharmaceutically acceptable salt thereof, e.g., as described herein, modulates the expression of a target protein (e.g., HTT or MYB) in a reference cell or sample. In an embodiment, a compound of Formula (I) or (II) or a pharmaceutically acceptable salt thereof, e.g., as described herein, increases the expression of a target protein (e.g., HTT or MYB) in a reference cell or sample. In an embodiment, a compound of Formula (I) or (II) or a pharmaceutically acceptable salt thereof, e.g., as described herein, decreases the expression of a target protein (e.g., HTT or MYB) in a reference cell or sample. The effect of an exemplary compound of Formula (I) or (II) on protein abundance may be measured using a standard assay for measuring protein abundance, such as the HiBit-assay system (Promega). In this assay, percent response for each respective cell line may be as calculated at each compound concentration as follows: % response=100*(S−PC)/(NC−PC). For the normalized response at each concentration, a four-parameter logistical regression may be fit to the data and the response may be interpolated at the 50% value to determine a concentration for protein abundance at 50% (IC50) an untreated control. In an embodiment, a compound of Formula (I) or (II) or a pharmaceutically acceptable salt thereof, e.g., as described herein, has a protein abundance response less than 100 nM. In an embodiment, a compound of Formula (I) or (II) or a pharmaceutically acceptable salt thereof, e.g., as described herein, has a protein abundance response between 100-1000 nM. In an embodiment, a compound of Formula (I) or (II) or a pharmaceutically acceptable salt thereof, e.g., as described herein, has a protein abundance response greater than 1000 nM. In an embodiment, a compound of Formula (I) or (II) or a pharmaceutically acceptable salt thereof, e.g., as described herein, has a protein abundance response greater than 10 uM. In an embodiment, a compound of Formula (I) or (II) or a pharmaceutically acceptable salt thereof, e.g., as described herein, modulates the protein abundance of a target protein by about 1%, 5%, 10%, 15%, 20%, 25%, 30%, 35%, 40%, 45%, 50%, 55%, 60%, 65%, 70%, 75%, 80%, 85%, 90%, 95%, 99% or more, e.g., compared with a reference compound.

## Cc1cn2cc(NC(=O)c3ccc(N4CC[C@@H](NC56CC(C5)C6)C4)c4cn(C)nc34)cc(F)c2n1 [Compound 568, 4-[(3R)-3-{bicyclo[1.1.1]pentan-1-ylamino}pyrrolidin-1-yl]-N-{8-fluoro-2-methylimidazo[1,2-a]pyridin-6-yl}-2-methylindazole-7-carboxamide]
MYB mRNA
  AC50: 1000 to 10000 nM
  IC50: 1000 to 10000 nM
MYB
  IC50: 1000 to 10000 nM

## CCn1cc2c(N3CCC(NC4CC4)C3)cc(F)c(C(=O)Nc3cc(F)c4nc(C)cn4c3)c2n1 (stereo not drawn) [Compound 569, 4-[3-(cyclopropylamino)pyrrolidin-1-yl]-2-ethyl-6-fluoro-N-{8-fluoro-2-methylimidazo[1,2-a]pyridin-6-yl}indazole-7-carboxamide]
MYB mRNA
  AC50: < 100 nM
  IC50: < 100 nM
MYB
  IC50: < 100 nM

## Cc1cn2cc(NC(=O)c3c(F)cc(N4CC[C@@H](NC5CC5)C4)c4cn(C)nc34)cc(F)c2n1 [Compound 571, 4-[(3R)-3-(cyclopropylamino)pyrrolidin-1-yl]-6-fluoro-N-{8-fluoro-2-methylimidazo[1,2-a]pyridin-6-yl}-2-methylindazole-7-carboxamide]
MYB mRNA
  AC50: < 100 nM
  IC50: < 100 nM
MYB
  IC50: < 100 nM

## Cc1cn2cc(NC(=O)c3ccc(N4CC[C@@H](NCc5cnc(Cl)nc5)C4)c4cn(C)nc34)cc(F)c2n1 [Compound 573, 4-[(3R)-3-{[(2-chloropyrimidin-5-yl)methyl]amino}pyrrolidin-1-yl]-N-{8-fluoro-2-methylimidazo[1,2-a]pyridin-6-yl}-2-methylindazole-7-carboxamide]
MYB mRNA
  AC50: 100 to 1000 nM
  IC50: 100 to 1000 nM
MYB
  IC50: 1000 to 10000 nM

## Cc1cn2cc(NC(=O)c3ccc(N4CCC(C)(NC(C)C)C4)c4cn(C)nc34)cc(F)c2n1 (stereo not drawn) [Compound 574]
MYB mRNA
  AC50: 100 to 1000 nM
  IC50: 100 to 1000 nM
MYB
  IC50: 100 to 1000 nM

## CCn1cc2c(N3CCNCC3)ccc(C(=O)Nc3cc(F)c4ncccc4c3)c2n1 [Compound 575]
MYB mRNA
  AC50: > 10000 nM
  IC50: > 10000 nM
MYB
  IC50: 1000 to 10000 nM

— US20250154169A1, “COMPOUNDS AND METHODS FOR MODULATING SPLICING” (REMIX THERAPEUTICS INC., priority 2021, published 2025)
